This assay concerns the target T1, sodium-proton exchanger of subtype 3 (NHE3) (Homo sapiens, UniProt P48764).
T1 construct: expressed in transfected cells
T1 sequence (P48764 26-834): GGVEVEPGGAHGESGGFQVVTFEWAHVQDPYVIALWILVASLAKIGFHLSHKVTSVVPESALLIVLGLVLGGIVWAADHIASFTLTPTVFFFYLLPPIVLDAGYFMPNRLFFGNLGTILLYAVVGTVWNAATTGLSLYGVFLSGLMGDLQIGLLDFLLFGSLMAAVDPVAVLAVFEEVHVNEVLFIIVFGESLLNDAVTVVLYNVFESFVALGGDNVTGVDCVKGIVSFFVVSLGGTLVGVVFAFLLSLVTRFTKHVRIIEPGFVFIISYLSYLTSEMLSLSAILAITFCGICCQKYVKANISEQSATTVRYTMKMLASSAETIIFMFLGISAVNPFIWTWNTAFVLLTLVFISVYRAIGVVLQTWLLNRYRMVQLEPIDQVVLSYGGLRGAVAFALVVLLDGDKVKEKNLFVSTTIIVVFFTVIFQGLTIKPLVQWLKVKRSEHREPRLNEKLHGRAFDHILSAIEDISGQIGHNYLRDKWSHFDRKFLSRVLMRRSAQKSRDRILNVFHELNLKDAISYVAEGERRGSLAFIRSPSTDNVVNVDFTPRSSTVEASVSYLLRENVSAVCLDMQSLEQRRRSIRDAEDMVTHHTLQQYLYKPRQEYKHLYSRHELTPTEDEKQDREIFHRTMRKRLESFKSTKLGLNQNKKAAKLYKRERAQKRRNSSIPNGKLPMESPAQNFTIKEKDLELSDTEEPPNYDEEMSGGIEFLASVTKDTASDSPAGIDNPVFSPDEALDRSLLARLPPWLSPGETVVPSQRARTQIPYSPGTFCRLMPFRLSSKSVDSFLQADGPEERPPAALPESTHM
The assay can be described thus: Recovery of intracellular pH (pHi) after acidification in LAP1 cells stably expressing NHE3 (BCECF fluorescence, FLIPR). The class given is cell-based. The conditions noted are these: LAP1 cells stably expressing NHE3; pH recovery after acidification; range 1 is % inhibition at 10 μM; read-out: Activity range (inhibitory effect on NHE3).
Regarding `Cc1nn(C)c(C)c1-c1ccc(O[C@H]2c3cc(Cl)ccc3C[C@@H]2N2CC[C@@H](O)C2)cc1` [Example 140, (R)-1-{trans-(1S,2S)-6-chloro-1-[4-(1,3,5-trimethyl-1H-pyrazol-4-yl)phenoxy]indan-2-yl}pyrrolidin-3-ol], the IC50 fell in the range of 1 to 10 µM.

With `CS(=O)(=O)c1ccc(O[C@H]2c3ccccc3C[C@@H]2N2CCn3cnnc3C2)cc1` (racemic) [Example 590, 7-[rac-trans-(1,2)-1-(4-methanesulfonylphenoxy)indan-2-yl]-5,6,7,8-tetrahydro-[1,2,4]triazolo[4,3-a]pyrazine], the inhibition at 10 µM is 20 to 50%.

Regarding `CCCc1ccc(NC(C)=O)cc1O[C@H]1c2ccccc2CC[C@@H]1N1CCC[C@H](N)C1` (racemic) [Example 683, N-{3-[rac-trans-(1,2)-2-((S)-3-aminopiperidin-1-yl)-1,2,3,4-tetrahydronaphthalen-1-yloxy]-4-propylphenyl}acetamide], the IC50 was 1 to 10 µM.

For `Cc1nnc(C)n1-c1ccc(O[C@H]2c3cc(Cl)cc(Cl)c3C[C@@H]2N2CCCN(C)CC2)c(Cl)c1` [Example 345, 1-{trans-(1S,2S)-4,6-dichloro-1-[2-chloro-4-(3,5-dimethyl-[1,2,4]triazol-4-yl)phenoxy]indan-2-yl}-4-methyl-[1,4]diazepane], the IC50 was under 1 µM.

As for `O=C1CCC(=O)N1c1ccc(O[C@H]2c3cc(Cl)cc(Cl)c3C[C@@H]2N2CC[C@@H](O)C2)cc1` [Example 334, 1-{4-[trans-(1S,2S)-4,6-dichloro-2-((R)-3-hydroxypyrrolidin-1-yl)indan-1-yloxy]phenyl}pyrrolidine-2,5-dione], the IC50 is under 1 µM.

Consider `Cc1nnc(C)n1-c1ccc(O[C@H]2c3cc(Cl)cc(Cl)c3C[C@@H]2N2CCC[C@@H](O)C2)cc1` [Example 132, (R)-1-{trans-(1S,2S)-4,6-dichloro-1-[4-(3,5-dimethyl-[1,2,4]triazol-4-yl)phenoxy]indan-2-yl}piperidin-3-ol], for which the IC50 is under 1 µM.

Take `Cc1nnc(C)n1-c1ccc(O[C@H]2c3cc(Cl)cc(Cl)c3C[C@@H]2N2CC[C@@H](O)C2)c(Cl)c1` [Example 122, (R)-1-{trans-(1S,2S)-4,6-dichloro-1-[2-chloro-4-(3,5-dimethyl-[1,2,4]triazol-4-yl)phenoxy]indan-2-yl}pyrrolidin-3-ol]: the IC50 is under 1 µM.

Regarding `N[C@@H]1CCCN([C@H]2CCc3ccccc3[C@@H]2Oc2ccc(-n3cncn3)cc2)C1` (racemic) [Example 61, (R)-1-[rac-trans-(1,2)-1-(4-[1,2,4]triazol-1-ylphenoxy)-1,2,3,4-tetrahydronaphthalen-2-yl]piperidin-3-ylamine], the IC50 fell in the range of 1 to 10 µM.

As to `CC(=O)Nc1cccc(O[C@@H]2c3cc(Cl)cc(F)c3C[C@H]2N2CCCC2)c1` (racemic) [Example 660, N-[3-(rac-trans-(1,2)-6-chloro-4-fluoro-2-pyrrolidin-1-ylindan-1-yloxy)phenyl]acetamide], the IC50 was in the range of 1 to 10 µM.

For the compound `CS(=O)(=O)c1ccc(O[C@H]2c3cc(Cl)cc(Cl)c3C[C@@H]2N2CC[C@H](N)C2)cc1` [Example 199, (S)-1-[trans-(1S,2S)-4,6-dichloro-1-(4-methanesulfonylphenoxy)indan-2-yl]pyrrolidin-3-ylamine], the IC50 is under 1 µM.

For the compound `N[C@@H]1CCCN([C@H]2CCc3ccccc3[C@@H]2Oc2cccc(-n3cnnn3)c2)C1` (racemic) [Example 60, (R)-1-[rac-trans-(1,2)-1-(3-tetrazol-1-ylphenoxy)-1,2,3,4-tetrahydronaphthalen-2-yl]piperidin-3-ylamine], the IC50 lay in the range of 1 to 10 µM.

On to `Cn1ccn(-c2ccc(Cl)c(O[C@H]3c4cc(Cl)cc(F)c4C[C@@H]3N3CC[C@@H](O)C3)c2)c1=O` [Example 339, 1-{4-chloro-3-[(1S,2S)-6-chloro-4-fluoro-2-((R)-3-hydroxypyrrolidin-1-yl)indan-1-yloxy]phenyl}-3-methyl-1,3-dihydroimidazol-2-one], for which the IC50 was under 1 µM.

As for `NS(=O)(=O)c1ccc(O[C@@H]2c3ccccc3C[C@H]2NCC2CCC2)c(F)c1` (racemic) [Example 718, 4-[rac-trans-(1,2)-2-(Cyclobutylmethyl-amino)-indan-1-yloxy]-3-fluoro-benzenesulfonamide], the IC50 is under 1 µM.

Take `Cc1nnc(C)n1-c1ccc(O[C@H]2c3cc(Cl)ccc3C[C@@H]2N2CCS(=O)(=O)CC2)c(Cl)c1` [Example 567, 4-{trans-(1S,2S)-6-chloro-1-[2-chloro-4-(3,5-dimethyl-[1,2,4]triazol-4-yl)phenoxy]indan-2-yl}thiomorpholine 1,1-dioxide]: the IC50 is 1 to 10 µM.

As for `COCCN(C)[C@H]1Cc2c(Cl)cc(Cl)cc2[C@@H]1Oc1ccc(S(C)(=O)=O)cc1` [Example 218, [trans-(1S,2S)-4,6-dichloro-1-(4-methanesulfonylphenoxy)indan-2-yl]-(2-methoxyethyl)-methylamine], the inhibition at 10 µM lay within 20 to 50%.

As for `N[C@H]1CCCN([C@H]2CCc3ccccc3[C@@H]2Oc2ccc(Br)cc2-c2cc[nH]n2)C1` (racemic) [Example 203, (S)-1-{rac-trans-(1,2)-1-[4-bromo-2-(1H-pyrazol-3-yl)phenoxy]-1,2,3,4-tetrahydronaphthalen-2-yl}piperidin-3-ylamine], the inhibition at 10 µM lay within 20 to 50%.

As to `CS(=O)(=O)c1ccc(O[C@H]2c3cc(F)cc(Cl)c3C[C@@H]2N2CCNCC2)cc1` (racemic) [Example 283, 1-[rac-trans-(1,2)-4-chloro-6-fluoro-1-(4-methanesulfonylphenoxy)indan-2-yl]piperazine], the IC50 was under 1 µM.

For the compound `Cc1nnc(C)n1-c1ccc(O[C@H]2c3cc(Cl)cc(Cl)c3C[C@@H]2N2CCCC2)cc1` [Example 500, 4-[4-(trans-(1S,2S)-4,6-dichloro-2-pyrrolidin-1-ylindan-1-yloxy)phenyl]-3,5-dimethyl-4H-[1,2,4]triazole], the IC50 is under 1 µM.

For `N[C@H]1CCCN([C@H]2CCc3ccccc3[C@@H]2Oc2cccc3[nH]nnc23)C1` (racemic) [Example 147, (S)-1-[rac-trans-(1,2)-1-(1H-benzotriazol-4-yloxy)-1,2,3,4-tetrahydronaphthalen-2-yl]piperidin-3-ylamine], the IC50 was under 1 µM.

Consider `N#Cc1ccc(O[C@H]2c3ccccc3CC[C@@H]2N2CCC[C@@H](N)C2)cc1F` (racemic) [Example 510, 4-[rac-trans-(1,2)-2-((R)-3-aminopiperidin-1-yl)-1,2,3,4-tetrahydronaphthalen-1-yloxy]-2-fluorobenzonitrile], for which the IC50 was under 1 µM.

Regarding `COc1cccc(CC#N)c1O[C@H]1c2ccccc2CC[C@@H]1N1CCC[C@@H](N)C1` (racemic) [Example 229, {2-[rac-trans-(1,2)-2-((R)-3-aminopiperidin-1-yl)-1,2,3,4-tetrahydronaphthalen-1-yloxy]-3-methoxyphenyl}acetonitrile], the inhibition at 10 µM lay in the range of 20 to 50%.

As for `COCCc1ccc(O[C@@H]2c3ccccc3C[C@H]2N2CCC(N)C2)cc1` (mixture of isomers) [Example 342, 1-{rac-trans-(1,2)-1-[4-(2-methoxyethyl)phenoxy]indan-2-yl}pyrrolidin-3-ylamine], the IC50 lay in the range of 1 to 10 µM.

`CS(=O)(=O)c1ccc(O[C@H]2c3cc(Cl)cc(Cl)c3C[C@@H]2N2CC[C@@H](N3CCCC3)C2)cc1` [Example 99, (R)-1′-[trans-(1S,2S)-4,6-dichloro-1-(4-methanesulfonylphenoxy)indan-2-yl]-[1,3′]bipyrrolidinyl]: the IC50 was under 1 µM.

For the compound `N[C@@H]1CCCN([C@@H]2Cc3ccccc3[C@H]2Oc2ccc3c(c2)OCO3)C1` (racemic) [Example 83, (R)-1-[rac-trans-(1,2)-1-(benzo[1,3]dioxol-5-yloxy)indan-2-yl]piperidin-3-ylamine], the IC50 lay within 1 to 10 µM.

With `O[C@@H]1CCN([C@H]2Cc3c(Cl)cc(Cl)cc3[C@@H]2Oc2ccc(F)cc2-c2ccn[nH]2)C1` [Example 137, (R)-1-{trans-(1S,2S)-4,6-dichloro-1-[4-fluoro-2-(2H-pyrazol-3-yl)phenoxy]indan-2-yl}pyrrolidin-3-ol], the inhibition at 10 µM fell in the range of 20 to 50%.

Turning to `NC(=O)c1ccc(O[C@@H]2c3ccccc3C[C@H]2N2CCC[C@@H](N)C2)cc1` (racemic) [Example 524, 4-[rac-trans-(1,2)-2-((R)-3-aminopiperidin-1-yl)indan-1-yloxy]benzamide], the IC50 is under 1 µM.

With `C[C@@]1(N2CCCC2)Cc2ccccc2[C@H]1Oc1ccc(S(C)(=O)=O)cc1` (racemic) [Example 252, 1-[1-(4-methanesulfonylphenoxy)-2-methylindan-2-yl]pyrrolidine], the inhibition at 10 µM lay within 20 to 50%.

With `Cc1ccc2c(c1)C(Oc1ccc(S(N)(=O)=O)cc1)C(N1CCCC1)C2` (racemic) [Example 475, 4-(rac-trans-(1,2)-6-methyl-2-pyrrolidin-1-ylindan-1-yloxy)benzenesulfonamide], the IC50 was in the range of 1 to 10 µM.

Values taken from patent US8822449B2, “Substituted aminoindanes and analogs thereof, and the pharmaceutical use thereof” (Sanofi, priority 2008, dated 2014).
